Molecules are shown by their SMILES.

In patent US11780839B2, “Compounds for treating Huntington's disease” (PTC THERAPEUTICS, INC., priority 2018, dated 2023) one finds IC50 data, which are given here for four compounds.

The test system of the test is Endogenous Huntingtin Protein. As to the kind of experiment: Endogenous Huntingtin Protein Assay (ELISA-based Meso Scale Discovery electrochemiluminescence). The format is cell-based. The note with it: MSD electrochemiluminescence, Table 1. In outline: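 Sandwich MSD electrochemiluminescence immunoassay. Capture used MW1 (expanded polyglutamine) or MAB2166 antibody coated at 1 μg/mL overnight at 4 °C. Samples were bound overnight at 4 °C, then a rabbit monoclonal detection antibody and SULFO-TAG anti-rabbit, each at 0.25 μg/mL, were applied for 1 h at room temperature.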
For orientation: In an ELISA, binding on a coated surface is turned into a signal by an enzyme label.
For the compound `Oc1cc(-c2cn[nH]c2)ccc1-c1cnc(N2CCC(C3(NC4CCOCC4)CC3)C2)nn1` (stereo not shown) [Cpd 421, 2-[3-(3-{1-[(oxan-4-yl)amino]cyclopropyl}pyrrolidin-1-yl)-1,2,4-triazin-6-yl]-5-(1H-pyrazol-4-yl)phenol], the 50% inhibitory concentration (IC50) (commonly the point on the concentration scale where inhibition reaches its midpoint) was at most 100 nM.

In the case of `CC(C)NC1(C)CCN(c2ncc(-c3ccc(-c4cnn(C)c4)cc3O)nn2)C1` (stereo not shown) [Cpd 422], the 50% inhibitory concentration (IC50) was at most 100 nM.

The compound `CC1(C)CC(Nc2cnc(-c3ccc(-c4cn[nH]c4)cc3O)nn2)C(F)C(C)(C)N1` (stereo not shown) [Cpd 423, 2-{6-[(3-fluoro-2,2,6,6-tetramethylpiperidin-4-yl)amino]-1,2,4-triazin-3-yl}-5-(1H-pyrazol-4-yl)phenol] registered an IC50 of at most 100 nM.

Consider `[2H]C([2H])([2H])n1cc(-c2ccc(-c3ncc(NC4CC(C)(C)NC(C)(C)C4)nn3)c(O)c2)cn1` [Cpd 424, 5-[1-(^2H3)methyl-1H-pyrazol-4-yl]-2-{6-[(2,2,6,6-tetramethylpiperidin-4-yl)amino]-1,2,4-triazin-3-yl}phenol], for which the 50% inhibitory concentration (IC50) is at most 100 nM.
